Laboratory results from patent US20080249141A1, “Co-therapy with and combinations of statins and 1,4-dihydropyridine-3,5-dicarboxydiesters” (priority 2007, published 2008).

Details: patient

SMILES | therapeutic effectiveness after change from crystalline atorvastatin calcium (20 mg once daily with 10 mg amlodipine) | therapeutic effect (20 mg once a day, co-administered 10 mg amlodipine once daily)
CC(C)c1c(C(=O)Nc2ccccc2)c(-c2ccccc2)c(-c2ccc(F)cc2)n1CC[C@@H](O)C[C@@H](O)CC(=O)[O-].CC(C)c1c(C(=O)Nc2ccccc2)c(-c2ccccc2)c(-c2ccc(F)cc2)n1CC[C@@H](O)C[C@@H](O)CC(=O)[O-].[Ca+2] [amorphous atorvastatin calcium] | without change in the therapeutic effectiveness | 
CC(C)c1c(C(=O)Nc2ccccc2)c(-c2ccccc2)c(-c2ccc(F)cc2)n1CC[C@@H](O)C[C@@H](O)CC(=O)[O-].CC(C)c1c(C(=O)Nc2ccccc2)c(-c2ccccc2)c(-c2ccc(F)cc2)n1CC[C@@H](O)C[C@@H](O)CC(=O)[O-].[Ca+2] [crystalline atorvastatin calcium] |  | good therapeutic effect
